Common to all, as to assay: inhibition of tumour cell growth, NCI panel, 48 h
Experiment [1] concerns A498 renal.
Experiment [2] concerns ACHN renal.
Experiment [3] concerns MDA-MB-435.
In experiment [4] the test system is MDA-N.
Experiment [5] has as its system OVCAR-8 ovarian.
The test system of experiment [6] is SF-268 CNS.
For experiment [7], the system named is SNB-19 CNS.
The test system of experiment [8] is SR leukemia.
Experiment [9] concerns U251 CNS.

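96-well plates; 48 h exposure; 5 concentrations. Endpoints by linear interpolation between flanking doses. Not reached: highest tested concentration assigned. At the TGI there is no net growth.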 Where only a bound is given, the exact number is not on record here.

For 15 compounds, TGI results are on record in PubChem BioAssay (NCI).

Consider `O=C1C=CC(=O)c2c(O)c(N3CCN(c4ncccn4)CC3)c(Cl)c(O)c21`, for which the TGI in experiment [1] was determined as 6.49 µM; in [2], 5.42 µM; in experiment [3], 3.29 µM; in experiment [4], 3.75 µM; in [5], 6.37 µM; in [6], 7.88 µM. Also, the values for the TGI in [7], in [8] and in [9] were 18 µM, 37.8 µM and 12 µM, respectively.

`O=c1[nH]nc(-c2ccc([N+](=O)[O-])cc2)[nH]1`: the TGI in experiment [1], in experiment [2], in experiment [3], in experiment [4], in experiment [5] and in [6] was over 100 µM each time. The TGI in experiment [7], in experiment [8] and in experiment [9] was over 100 µM throughout.

Take `Cc1ccc2nc(Nc3ccccc3C)c(Nc3ccccc3C)nc2c1`: the TGI in experiment [1] is 69.6 µM; in experiment [2], over 100 µM; in [3], over 94.2 µM; in experiment [4] it was 67.1 µM; in experiment [5], over 100 µM; in [6] it was over 100 µM. Besides, the TGI is over 100 µM in experiment [7], over 100 µM in experiment [8] and over 70 µM in experiment [9].

Turning to `CC(C)NC(=O)OCc1c(COC(=O)NC(C)C)n(C)c2c1ccc1cc(Cl)c(Cl)cc12`, the TGI in experiment [1] was determined as 4.85 µM; in [2] it was 24 µM; in [3] it was 19.5 µM; in [4], 26.5 µM; in experiment [5], 23.8 µM; in [6], 29.4 µM. Also, the TGI in [7] worked out at 26.6 µM; in experiment [8] it was 30.6 µM; in experiment [9], 29.3 µM.

For `O=C1CCCC2=C1CC1=C(CCCC1=O)N2c1ccc(-c2ccccc2)cc1`, the TGI in [1], in experiment [2], in experiment [3], in [4], in experiment [5] and in experiment [6] was over 100 µM each time. For the same compound, the TGI in experiment [7], in [8] and in experiment [9] was over 100 µM in each case.

Consider `CC(=O)Nc1ccc2c(c1)nc1c3ccccc3ccn21`, for which the TGI in experiment [1], in experiment [2], in [3], in [4], in [5] and in [6] was over 100 µM in each case. Also, the TGI in [7], in experiment [8] and in [9] was over 100 µM in each case.

In the case of `CCC(C)C(NC(=O)C(CCCC[N+](=N)N)NC(=O)C(CCCC[N+](=N)N)NC(=O)c1ccc(OC)cc1)C(=O)NC(CCCC[N+](=N)N)C(=O)N1CCCC1C(=O)NC(CCCCN)C(=O)NC(CC(C)C)C(N)=O` (centres undefined), the TGI in [1], in [2], in [3], in experiment [4], in experiment [5] and in experiment [6] was over 100 µM in each case. For the same compound, the TGI in [7], in experiment [8] and in [9] was over 100 µM each time.

`CCCCCc1cc(CCCC)sc1-c1ccco1`: the TGI in experiment [1], in [2], in [3], in experiment [4], in experiment [5] and in experiment [6] was over 100 µM in each case. The TGI in experiment [7], in [8] and in experiment [9] was over 100 µM throughout.

As for `C=CCN(c1cc(OC)c2[nH]c(C(=O)O)c(C)c2c1[N+](=O)[O-])S(C)(=O)=O`, the TGI in [1], in experiment [2], in experiment [3], in experiment [4], in [5] and in experiment [6] was over 100 µM each time. In addition, the TGI in [7], in experiment [8] and in [9] was over 100 µM throughout.

For `CCOC(=O)OC1(c2ccccc2)CCN(C)CC1`, the TGI in experiment [1], in [2], in [3], in [4], in [5] and in [6] was over 100 µM each time. Moreover, the TGI in [7], in [8] and in experiment [9] was over 100 µM in each case.

In the case of `CN(C)CCN1C(=O)N(CCN(C)C)c2c3cc(O)ccc3nc3c([N+](=O)[O-])ccc1c23`, the TGI in experiment [1] turned out to be 29.6 µM; in experiment [2] it was 19.1 µM; in experiment [3] it was 32.9 µM; in experiment [4], 26.7 µM; in [5] it was 36 µM; in experiment [6], 26.7 µM. Further, the figures for the TGI in experiment [7], in experiment [8] and in experiment [9] were 24.2 µM, 0.807 µM and 24.4 µM, respectively.

With `CCOP(=O)(COCCn1nc(Br)c(=O)[nH]c1=O)OCC`, the TGI in experiment [1], in [2], in experiment [3], in experiment [4], in [5] and in [6] was over 100 µM throughout. Further, the TGI in [7], in experiment [8] and in experiment [9] was over 100 µM in each case.

On to `CCOP(=O)(CC1OC(CO)C(O)C1O)OCC` (centres undefined), for which the TGI in experiment [1], in experiment [2], in experiment [3], in experiment [4], in experiment [6] and in experiment [7] was over 100 µM each time. Also, the TGI in [8] and in experiment [9] was over 100 µM throughout.

For `N#Cc1ccnc(C(=O)N2CCCC2C(=O)O)c1` (centres undefined), the TGI in [1], in experiment [2], in experiment [3], in experiment [4], in [5] and in experiment [6] was over 100 µM each time. In addition, the TGI in [7], in [8] and in [9] was over 100 µM each time.

`O=C(O)C12C3C4(C(=O)O)C1C1(C(=O)O)C2C3(C(=O)O)C41` (centres undefined): the TGI in experiment [1], in experiment [2], in experiment [3], in [4], in [5] and in [6] was over 100 µM each time. In addition, the TGI in [7], in [8] and in experiment [9] was over 100 µM throughout.
